From US20150050240A1, “TREATMENT OF FIBROSIS” (NOVARTIS AG, priority 2012, published 2015)

How the values were obtained:
[1] = system: primary human lung fibroblasts (HLFs); test: Fibroblast-to-myofibroblast transition (FMT), western blot for SMA; format: cell-based
Protocol: Primary human lung fibroblasts (Promocell) were maintained in DMEM supplemented with 10% heat-inactivated FBS, 1 mM Na-pyruvate and 1% Penicillin/Streptomycin and trypsinised every 4 days. Sub-confluent HLFs were electroporated via nucleofection (Amaxa electroporation system) with siRNAs.
(§1) HLFs, IPF donor cells, A549 cells lysates or lung tissue lysates were prepared in RIPA buffer. The patient lung biopsies study utilized biological specimens and data provided by the Lung Tissue Research Consortium (LTRC) supported by the National Heart, Lung, and Blood Institute (NHLBI). For Western blots, 1:1000-diluted mouse-anti-N-Cadherin (BD Biosciences), rabbit-anti-OB-Cadherin (Santa Cruz), mouse-anti-SMA (Sigma), mouse-anti-vimetin (DACO), mouse-anti-E-Cadherin (Abram), rabbit-anti-β-catenin (Cell Signaling Technology), anti-rabbit-p-[…]-β-catenin (Cell Signaling Technology), rabbit-anti-β-actin (Santa Cruz) and mouse-anti-GAPDH (Santa Cruz) were used in combination with HRP-conjugated secondary antibodies (GE Healthcare). Western blots were developed using an ECL system (GE Healthcare). Quantification of the intensity of the bands was performed using NIH ImageJ software.
To assess functional responses, non-transfected HLFs or HLFs transfected with siRNAs were plated in full growth medium and left to grow overnight, starved for 24 h in serum-free medium and stimulated with different growth factors for a further 24 h. For FMT assessment, the HLF cells were stimulated with 5 ng/ml TGFβ (R&D Systems) or 10 μg/ml human N-Cadherin-Fc (R&D Systems), for collagen secretion—with 1 ng/ml TGFβ, for proliferation—with FBS, 10 ng/ml PDGF-BB (R&D Systems) or 10 ng/ml FGF-2 (R&D Systems) and for migration—with 10 μg/ml human N-Cadherin-Fc (R&D Systems) or human OB-Cadherin-Fc (R&D Systems). […] The level of FMT was evaluated by western blot for SMA. Collagen secretion was measured by Sircol collagen assay (Biocolor Life Science). Proliferation assay was performed using the DELFIA system (PerkinElmer), and migration was assessed with the Oris System (Platypus Technology).

β-catenin = test: Western blots for p-Ser552 β-catenin and total β-catenin from HLFs; format: cell-based, human; conditions: HLFs stimulated with TGFβ; FIG. 4A
Protocol: as §1
To assess the regulation of β-catenin in response to a fibrotic stimulus in HLFs, cells were stimulated with TGFβ and the expression levels and phosphorylation state of β-catenin were assessed by Western blot (FIG. 4A). There was no difference in the expression levels of total β-catenin in TGFβ-stimulated cells. However, when the cell lysates were probed with a phospho-specific β-catenin antibody, we found an increase in the phosphorylation of Ser552 upon TGFβ treatment. […]

N-Cadherin = N-Cadherin expression in HLFs (RT-PCR, western blot); format: cell-based, human; conditions: TGFβ treatment, low and high cell density; FIG. 1A
Protocol: (§2) Total RNA was extracted from HLFs, transcribed into cDNA and used for RT-PCR. Validated Taqman N-Cadherin, OB-Cadherin, vimentin or E-Cadherin primers and probes were purchased from Applied Biosystems.
(§3) Small interfering RNAs against N-Cadehrin and OB-Cadherin were purchased from Applied Biosystems. Knockdown efficiencies were tested by using real-time RT-PCR and confirmed to be 95% at the time of stimulation in the different functional assays.
as §1

OB-Cadherin = OB-Cadherin expression in HLFs (RT-PCR, western blot); format: cell-based, human; conditions: TGFβ treatment of HLFs; FIG. 1A
Protocol: as §2, §3, §1

[2] = system: lung fibroblasts from IPF patients; conditions: cited from earlier work
[3] = cited from earlier work
[4] = cited from earlier work; remark: listed apart in the source
[5] = system: primary human lung fibroblasts (HLFs); test: HLF migration, in vitro wound closure assay (Oris System); format: cell-based; conditions: 10 μg/ml N-Cadherin-Fc; FIG. 3A
Protocol: To assess functional responses, non-transfected HLFs or HLFs transfected with siRNAs were plated in full growth medium and left to grow overnight, starved for 24 h in serum-free medium and stimulated with different growth factors for a further 24 h. For FMT assessment, the HLF cells were stimulated with 5 ng/ml TGFβ (R&D Systems) or 10 μg/ml human N-Cadherin-Fc (R&D Systems), for collagen secretion—with 1 ng/ml TGFβ, for proliferation—with FBS, 10 ng/ml PDGF-BB (R&D Systems) or 10 ng/ml FGF-2 (R&D Systems) and for migration—with 10 μg/ml human N-Cadherin-Fc (R&D Systems) or human OB-Cadherin-Fc (R&D Systems). In the loss of function FMT experiment, 50 μg/ml N-Cadherin neutralizing antibody (clone GC-4, Sigma) was used. The level of FMT was evaluated by western blot for SMA. Collagen secretion was measured by Sircol collagen assay (Biocolor Life Science). Proliferation assay was performed using the DELFIA system (PerkinElmer), and migration was assessed with the Oris System (Platypus Technology).
Increased migration is a hallmark of myofibroblasts and is thought to contribute to the pathology of IPF. Therefore, we investigated the effects of N-Cadherin gain- and loss-of function on the migratory potential of HLFs. We performed an in vitro wound closure assay with cells treated with the recombinant N-Cadherin-Fc chimera or with N-Cadherin siRNA.

[6] = system: A549 epithelial alveolar type II cells; test: Epithelial-to-mesenchymal transition (EMT) in A549 cells (RT-PCR, western blot, E-Cadherin immunocytochemistry); format: cell-based, human; conditions: recombinant N-Cadherin-Fc, immunocytochemistry for E-Cadherin
Protocol: A549 epithelial alveolar type II cells (ATCC) were maintained in DMEM supplemented with 10% heat-inactivated FBS and 1% Penicillin/Streptomycin and trypsinised every 4 days.
For EMT assessment, A549 cells were simulated with 5 ng/ml TGFβ (R&D Systems), a combination of 5 ng/ml TGFβ (R&D Systems) and 2.5 ng/ml IL-1β (R&D Systems) or N-Cadherin-Fc (R&D Systems). The level of EMT was evaluated either by RT-PCR and Western blot for vimentin and E-Cadheirn or by immunocytochemistry for E-Cadherin. In the loss of function EMT experiment, N-Cadherin neutralizing tool antibody or IgG isotype control were used in the presence of 18 μg/ml N-cadheirn-Fc (R&D Systems).

[7] = phase II trial with IPF patients
[8] = more recent clinical trial, discontinued in 2007

Question: What does the source list for “TGFβ: TGFβ (R&D Systems), pro-fibrotic stimulus used to induce FMT”?
Answer: SMA expression ([1]; TGFβ stimulation, low and high cell density): marked increase; expression levels of total β-catenin (β-catenin): no difference; phosphorylation of Ser552 of β-catenin (β-catenin): increase; N-Cadherin expression (N-Cadherin): upregulated; OB-Cadherin expression (OB-Cadherin): upregulated

Question: With `Cc1ccc(=O)n(-c2ccccc2)c1` [Pirfenidone] as the molecule, how does the collagen synthesis [2] read?
Answer: reduces collagen synthesis

Question: What about the “mitogenic effects of pro-fibrotic cytokines” value [2] of the same molecule?
Answer: blocks mitogenic effects

Question: And the chest radiographs [3, 7]?
Answer: did not improve

Question: What about the pulmonary functional tests [3, 7] of the same molecule?
Answer: stabilized or improved in some patients

Question: And the side effects [3, 7]?
Answer: no severe side effects

Question: And the survival rates [3, 7]?
Answer: improved

Question: And the lung function ([3]; phase III clinical trial, IPF patients)?
Answer: might positively affect lung function

Question: Which results are given for interferon?
Answer: clinical improvement ([4]; IPF patients refractory to corticosteroid or immunosuppressive therapy): showed no improvement; clinical trial outcome [4, 8]: ineffectiveness; patients death rates compared with placebo [4, 8]: slightly increased

B1: N-Cadherin-Fc: human N-Cadherin-Fc fusion protein (R&D Systems) that mimics N-Cadherin homophilic interactions and activates N-Cadherin signalling (protein)
chain: DWVIPPINLPENSRGPFPQELVRIRSDRDKNLSLRYSVTGPGADQPPTGIFIINPISGQLSVTKPLDREQIARFHLRAHAVDINGNQVENPIDIVINVIDMNDNRPEFLHQVWNGTVPEGSKPGTYVMTVTAIDADDPNALNGMLRYRIVSQAPSTPSPNMFTINNETGDIITVAAGLDREKVQQYTLIIQATDMEGNPTYGLSNTATAVITVTDVNDNPPEFTAMTFYGEVPENRVDIIVANLTVTDKDQPHTPAWNAVYRISGGDPTGRFAIQTDPNSNDGLVTVVKPIDFETNRMFVLTVAAENQVPLAKGIQHPPQSTATVSVTVIDVNENPYFAPNPKIIRQEEGLHAGTMLTTFTAQDPDRYMQQNIRYTKLSDPANWLKIDPVNGQITTIAVLDRESPNVKNNIYNATFLASDNGIPPMSGTGTLQIYLLDINDNAPQVLPQEAETCETPDPNSINITALDYDIDPNAGPFAFDLPLSPVTIKRNWTITRLNGDFAQLNLKIKFLEAGIYEVPIIITDSGNPPKSNISILRVKVCQCDSNGDCTDVDRIVGAGLGTGA
modifications: left off: a dimerising Fc or GST
Question: What does the source list for B1?
Answer: SMA expression ([1]; HLFs treated with 10 μg/ml N-Cadherin-Fc for 24 h, FIG. 2A): significant increase; additive or synergistic effect on SMA expression ([1]; combination of TGFβ and N-Cadherin-Fc, 24 h): did not observe an additive or synergistic effect; HLF migration into the wound [5]: significant increase; EMT, measured by decreased E-Cadherin signal [6]: significant EMT
